Values quoted from earlier work in publication PMC12138161, “Structure–activity analysis of imino‐pyrimidinone‐fused pyrrolidines aids the development of dual plasmepsin V and plasmepsin X inhibitors” (The Febs Journal, 2025).
Read-outs that look alike come from different tables or passages of the source.

Key:
PMV = details: cited from earlier work
PMIX = details: cited from earlier work
[1] = tested on: 3D7 strain of Plasmodium falciparum; details: blood stage growth, read-out: Pf 3D7 EC50; cited from earlier work
PMX = details: cited from earlier work

Compound	IC50 (PMV) [nM]	IC50 (PMV; stated in text with reference to Fig. 1) [nM]	IC50 (PMIX) [nM]	EC50 [1] [nM]	IC50 (PMX) [nM]
CC(C)C[C@H](NC(=O)[C@@H](NC(=O)[C@H](CCONC(=N)N)NC(=O)OCc1ccccc1)C(C)C)[C@@H](O)CC(=O)NCCc1ccccc1 [WEHI-842 (1)]	19	< 20	> 50000	430	1700
C[C@@H](NC[C@@H](O)[C@H](Cc1ccccc1)NC(=O)c1ccc(C(=O)N2CCN(C)CC2)cc1)c1ccccc1 [49c (3)]	> 1000	–	650	0.6	1.4
